This data set can be described thus: xn = mol fraction of the nth substance listed. The settings on record: 101.3 kPa.

In the case of `C[C@H](N)C(=O)[O-].C[N+](C)(C)CCO` + O, the viscosity runs as follows: (298.1 K, x1 = 0.0588) 5 mPa·s; (298.1 K, x1 = 0.1232) 9.1 mPa·s; (313 K, x1 = 0.0588) 3.18 mPa·s; (313 K, x1 = 0.2726) 18.2 mPa·s; (333 K, x1 = 0.1232) 3.64 mPa·s; (333 K, x1 = 0.2726) 10.2 mPa·s.
Take `C[N+](C)(C)CCO.NCC(=O)[O-]` + O: the viscosity reads like this: (298.1 K, x1 = 0.0631) 4.09 mPa·s; (298.1 K, x1 = 0.1317) 10 mPa·s; (298.1 K, x1 = 0.2879) 20.9 mPa·s; (313 K, x1 = 0.0631) 2.73 mPa·s; (313 K, x1 = 0.1317) 6.4 mPa·s; (313 K, x1 = 0.2879) 12.3 mPa·s. The viscosity is, setting by setting: (333 K, x1 = 0.0631) 1.82 mPa·s; (333 K, x1 = 0.1317) 3.64 mPa·s; (333 K, x1 = 0.2879) 7.3 mPa·s.

The term viscosity denotes the internal friction of a fluid under shear. Higher therefore signals a thick fluid.
